According to ChEMBL document CHEMBL1201862, “PubChem BioAssay data set” (2004):
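All cell lines were grown in 96-well plates and treated with compound for 48 hours. The concentration for 50% growth inhibition is given as GI50.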 Calls of active or inactive are those of the source. No stated cut-off is given here; in the data, active = GI50 up to about 1.1 µM and inactive = higher.

Tests used:
Assay in all cases: DTP human tumour cell line panel, 48 h
SF-295 = tested on: SF-295
SR = tested on: SR
HCT-116 = tested on: HCT-116
SNB-19 = tested on: SNB-19
CAKI-1 = tested on: CAKI-1
UO-31 = tested on: UO-31
UACC-62 = tested on: UACC-62
LXFL 529 = tested on: LXFL 529
HL-60 = tested on: HL-60
SK-MEL-28 = tested on: SK-MEL-28
HCC 2998 = tested on: HCC 2998
KM-20L2 = tested on: KM-20L2
SK-MEL-5 = tested on: SK-MEL-5
K562 = tested on: K562
SNB-75 = tested on: SNB-75
KM12 = tested on: KM12
RXF 631 = tested on: RXF 631
COLO 205 = tested on: COLO 205
DMS-273 = tested on: DMS-273
IGROV-1 = tested on: IGROV-1
SNB-78 = tested on: SNB-78
SF-268 = tested on: SF-268
HCT-15 = tested on: HCT-15
Malme-3M = tested on: Malme-3M
HT-29 = tested on: HT-29
DMS-114 = tested on: DMS-114
EKVX = tested on: EKVX
HOP-92 = tested on: HOP-92
OVCAR-3 = tested on: OVCAR-3
HOP-18 = tested on: HOP-18
M14 = tested on: M14
SK-OV-3 = tested on: SK-OV-3
SW-620 = tested on: SW-620
MOLT-4 = tested on: MOLT-4
U-251 = tested on: U-251
NCI-H460 = tested on: NCI-H460
OVCAR-8 = tested on: OVCAR-8
LOX IMVI = tested on: LOX IMVI
NCI-H226 = tested on: NCI-H226
HOP-62 = tested on: HOP-62
TK-10 = tested on: TK-10
UACC-257 = tested on: UACC-257
NCI-H23 = tested on: NCI-H23
ACHN = tested on: ACHN
SK-MEL-2 = tested on: SK-MEL-2
RPMI-8226 = tested on: RPMI-8226
M19-MEL = tested on: M19-MEL
SF-539 = tested on: SF-539
OVCAR-5 = tested on: OVCAR-5
DLD-1 = tested on: DLD-1
SN12C = tested on: SN12C
786-0 = tested on: 786-0
OVCAR-4 = tested on: OVCAR-4
A549 = tested on: A549
XF498 = tested on: XF498
RXF 393 = tested on: RXF 393
CCRF-CEM = tested on: CCRF-CEM
A498 = tested on: A498
NCI-H522 = tested on: NCI-H522

Measured: GI50

Cc1cc(C)c([O-])c(-[n+]2c(-c3ccccc3)cc(-c3ccccc3)cc2-c2ccccc2)c1
11.9 µM: HCT-15
inactive: SF-295 4.98 µM | SR 2.6 µM | HCT-116 1.63 µM | SNB-19 8.89 µM | CAKI-1 9.27 µM | UO-31 18.9 µM | UACC-62 3.34 µM | LXFL 529 2.35 µM | HL-60 1.62 µM | SK-MEL-28 4.81 µM | HCC 2998 3.51 µM | KM-20L2 2.65 µM | SK-MEL-5 1.94 µM | K562 3.21 µM | SNB-75 6.18 µM | KM12 3.21 µM | RXF 631 10.2 µM | COLO 205 3.22 µM | DMS-273 3.24 µM | IGROV-1 4.04 µM | SNB-78 6.24 µM | SF-268 7.82 µM | Malme-3M 4.28 µM | HT-29 2.98 µM | DMS-114 3.05 µM | EKVX 8.07 µM | HOP-92 1.73 µM | OVCAR-3 3.67 µM | HOP-18 5.31 µM | M14 5.57 µM | SK-OV-3 13.7 µM | SW-620 4.1 µM | MOLT-4 2.67 µM | U-251 3.38 µM | NCI-H460 4.48 µM | OVCAR-8 4.33 µM | LOX IMVI 1.72 µM | NCI-H226 10.1 µM | HOP-62 10.1 µM | TK-10 6.22 µM | UACC-257 2.94 µM | NCI-H23 3.53 µM | ACHN 5.13 µM | SK-MEL-2 2.88 µM | RPMI-8226 2.79 µM | M19-MEL 3.88 µM | SF-539 11.2 µM | OVCAR-5 4.49 µM | DLD-1 5.19 µM | SN12C 5.09 µM | 786-0 6.78 µM | OVCAR-4 4.28 µM | A549 12.6 µM | XF498 2.15 µM | RXF 393 6.73 µM | CCRF-CEM 1.73 µM

O=C1CCC(NC(=O)Cc2ccc(O)cc2)C(=O)N1 (configuration not stated)
> 2500 µM: HCT-15
inactive: SF-295 > 2500 µM | HCT-116 > 2500 µM | SNB-19 > 2500 µM | CAKI-1 > 2500 µM | UO-31 > 2500 µM | UACC-62 > 2500 µM | LXFL 529 > 2500 µM | SK-MEL-28 > 2500 µM | KM-20L2 > 2500 µM | SK-MEL-5 > 2500 µM | SNB-75 589 µM | KM12 > 2500 µM | RXF 631 > 2500 µM | COLO 205 > 2500 µM | DMS-273 > 2500 µM | IGROV-1 > 2500 µM | SNB-78 > 2500 µM | SF-268 > 2500 µM | HT-29 > 2500 µM | DMS-114 > 2500 µM | EKVX > 2500 µM | A498 > 2500 µM | HOP-92 > 2500 µM | OVCAR-3 > 2500 µM | HOP-18 > 2500 µM | M14 > 2500 µM | SK-OV-3 1020 µM | SW-620 > 2500 µM | U-251 > 2500 µM | NCI-H460 > 2500 µM | OVCAR-8 > 2500 µM | LOX IMVI > 2500 µM | NCI-H226 > 2500 µM | TK-10 > 2500 µM | UACC-257 > 2500 µM | NCI-H23 > 2500 µM | ACHN > 2500 µM | M19-MEL > 2500 µM | OVCAR-5 > 2500 µM | SN12C > 2500 µM | NCI-H522 > 2500 µM | OVCAR-4 > 2500 µM | A549 > 2500 µM | XF498 > 2500 µM
